Laboratory results as given in patent US20260041649A1, “ANTI-INFLAMMATORY AGENT” (WATANABE OYSTER LABORATORY, CO., LTD., priority 2023, published 2026).

Tested on: mouse macrophage RAW264.7 cells
Experiment: Western blotting of caspase-3 and cleaved caspase-3
Type: cell-based
Settings: DHMBA 10 μM, 3 days
Procedure: FIG. 4 is an explanatory diagram describing that the marine factor 3,5-dihydroxy-4-methoxy benzyl alcohol (DHMBA) stimulates cell death in mouse macrophage RAW264.7 cells. RAW264.7 cells (1×10^5 cells/ml/well in a 24-well plate) were cultured in DMEM containing 10% FBS, 1% P/S, and 1% fungizone for 3 days until they reached subconfluence. The cells were cultured for another 24 hours (FIG. 4A) or 48 hours (FIG. 4B) in the control group (1% ethanol; 0 μM DHMBA as final concentration) and in the DHMBA-treated group (0.1, 1, 10, 100, or 1000 μM). […] After the culture, the number of cells attached to the dish was counted. […]
RAW264.7 cells (1×10^6 cells/10 ml of 100 mm dish) were cultured for 3 days in 10% FBS, 1% P/S (1% ethanol), or in the DHMBA-treated group (10 μM). […] Protein concentrations in the supernatants were measured using Bio-Rad Protein Assay Dye (Bio-Rad Laboratories, Inc., Hercules, CA, USA) with bovine serum albumin as a standard. […] After incubation, the membranes were further incubated with horseradish peroxidase-conjugated secondary antibodies (Santa Cruz Biotechnology Inc., cat. no. sc-2005 (mouse) or sc-2305 (rabbit); dilution 1:2000) for 60 min at room temperature, and protein bands were detected using chemiluminescence substrates (cat. no. 34577, Thermo Fisher Scientific Inc., Rockford, IL, USA) on X-ray films. […]

## COc1c(O)cc(CO)cc1O [DHMBA, 3,5-dihydroxy-4-methoxybenzyl alcohol]
  level of caspase-3: increased
  level of cleaved caspase-3: increased
